Measurements from patent publication US20050124607A1, “5-Substituted quinazolinone compounds useful as alpha 1A/B adrenergic receptor antagonists” (priority 2003, published 2005).
Structures can show the parent of a compound that is named as a salt.

Question: Which melting point does the source give for `COc1cc2[nH]c(N3CCN(C(=O)CCC(C)C)CC3)nc(=O)c2c(OC)c1OC.Cl` here?
Answer: Its melting point is 198 to 201 °C.

Question: For `COc1cc2[nH]c(N3CCc4c(cccc4C4=NCCN4C)C3)nc(=O)c2c(C)c1OC`, which melting point is on record?
Answer: Its melting point is 246 to 250 °C.

Question: With `COc1cc2[nH]c(N3Cc4ccc(Cl)cc4C3)nc(=O)c2c(OC)c1OC.Cl` as the compound, how does the melting point read?
Answer: The melting point was 289 to 291 °C.

Question: Which melting point does the source give for `COc1cc2[nH]c(N3CCN(C4=NCCN4c4cccc(F)c4)CC3)nc(=O)c2c(C)c1OC` here?
Answer: Its melting point is 257.9 to 260 °C.

Question: Which melting point does the source give for `COc1cc2[nH]c(N3CCN(c4nccn4C)CC3)nc(=O)c2c(C)c1OC` here?
Answer: The melting point was 263 to 264 °C.

Question: With `COc1cc2[nH]c(N3CCc4c(cccc4N=C4N(C)CCN4C)C3)nc(=O)c2c(OC)c1OC` as the compound, how does the melting point read?
Answer: The melting point was 215 to 217.5 °C.

Question: Which melting point does the source give for `COc1cc2[nH]c(N3CCC(CCn4ccnc4N)CC3)nc(=O)c2c(C)c1OC` here?
Answer: Its melting point is 130.9 to 133.3 °C.

Question: Which melting point does the source give for `COc1cc2[nH]c(N3CCC(CCN4CCN=C4C)CC3)nc(=O)c2c(C)c1OC` here?
Answer: The melting point was 266.1 to 269.5 °C.

Question: For `COc1cc2[nH]c(N3CCC(CCn4ccnc4N)CC3)nc(=O)c2c(OC)c1OC`, which melting point is on record?
Answer: The melting point was 252.4 to 253.2 °C.

Question: Which melting point does the source give for `COc1cc2[nH]c(N3CCN(C4=NCCN4C)CC3)nc(=O)c2c(OC)c1OC` (as salt: HCl) here?
Answer: The melting point was 181.6 to 188.8 °C.

Question: For `COc1cc2[nH]c(N3CCN(c4ccccn4)CC3)nc(=O)c2c(C)c1OC` (as salt: HCl) [Example 40, 6,7-Dimethoxy-5-meth-yl-2-(4-pyridin-2-yl-pipe-razin-1-yl)-1H-quina-zolin-4-one], which melting point is on record?
Answer: Its melting point is 286.6 to 293.1 °C.

Question: With `COc1cc2[nH]c(N3CCN(c4cc(C)ccn4)CC3)nc(=O)c2c(C)c1OC` (as salt: HCl) [Example 43, 6,7-Dimethoxy-5-meth-yl-2-[4-(4-methyl-py-ridin-2-yl)-piperazin-1-yl]-1H-quina-zolin-4-one] as the compound, how does the melting point read?
Answer: Its melting point is 277.7 to 280 °C.

Question: For `COc1cc2c(cc1OC)CN(c1nc(=O)c3c(OC)c(OC)c(OC)cc3[nH]1)CC2` (as salt: HCl) [Example 104, 2-(6,7-Dimethoxy-3,4-di-hydro-1H-isoquinolin-2-yl)-5,6,7-tri-methoxy-1H-quinazolin-4-one], which melting point is on record?
Answer: Its melting point is 267 to 270 °C.

Question: Which melting point does the source give for `COc1cc2c(cc1OC)CN(c1nc(=O)c3c(OC(C)C)c(OC)c(OC)cc3[nH]1)CC2` (as salt: HCl) [Example 107, 2-(6,7-Dimethoxy-3,4-di-hydro-1H-isoquinolin-2-yl)-5-iso-propoxy-6,7-di-methoxy-1H-quina-zolin-4-one] here?
Answer: Its melting point is 253.3 to 261.9 °C.

Question: Which melting point does the source give for `CCOc1c(OC)c(OC)cc2[nH]c(N3CCc4cc(OC)c(OC)cc4C3)nc(=O)c12` (as salt: HCl) [Example 109, 2-(6,7-Dimethoxy-3,4-di-hydro-1H-isoquinolin-2-yl)-5-eth-oxy-6,7-di-methoxy-1H-quinazolin-4-one] here?
Answer: Its melting point is 218.5 to 221 °C.

Question: For `COc1cc2c(cc1OC)CN(c1nc(=O)c3c(O)c(OC)c(OC)cc3[nH]1)CC2` (as salt: HCl) [Example 110, 2-(6,7-Dimethoxy-3,4-di-hydro-1H-isoquinolin-2-yl)-5-hy-droxy-6,7-di-methoxy-1H-quinazolin-4-one], which melting point is on record?
Answer: Its melting point is 255 to 259 °C.

Question: For `COc1cc2c(cc1OC)CN(c1nc(=O)c3c(C(C)C)c(OC)c(OC)cc3[nH]1)CC2` (as salt: HCl) [Example 119, 2-(6,7-Dimethoxy-3,4-di-hydro-1H-isoquinolin-2-yl)-5-iso-propyl-6,7-di-methoxy-1H-quina-zolin-4-one], which melting point is on record?
Answer: Its melting point is 243 to 244 °C.

Question: Which melting point does the source give for `COc1cc2c(cc1OC)CN(c1nc(=O)c3c(C)c(OC)c(OC)cc3[nH]1)CC2` (as salt: HCl) [Example 121, 2-(6,7-Dimethoxy-3,4-di-hydro-1H-isoquinolin-2-yl)-6,7-di-methoxy-5-meth-yl-1H-quinazolin-4-one] here?
Answer: Its melting point is 260 to 268 °C.

Question: With `COc1cc2[nH]c(N3CCc4c(ncnc4N4CCOCC4)C3)nc(=O)c2c(OC)c1OC` (as salt: HCl) [Example 135, 5,6,7-Trimethoxy-2-(4-morpho-lin-4-yl-5,8-di-hydro-6H-pyrido[3,4-d]py-rimidin-7-yl)-1H-quina-zolin-4-one] as the compound, how does the melting point read?
Answer: Its melting point is 190 to 192 °C.

Question: Which melting point does the source give for `COc1cc2[nH]c(N3CCCN(C(=O)N4CCOCC4)CC3)nc(=O)c2c(C)c1OC` (as salt: HCl) [Example 137, 6,7-Dimethoxy-5-meth-yl-2-[4-(morpho-line-4-carbo-nyl)-[1,4]diazepan-1-yl]-1H-quina-zolin-4-one] here?
Answer: The melting point was 236.6 to 237.7 °C.

Question: With `COc1cc2nc(N3CCN(C(=O)CCC(C)C)CC3)[nH]c(=O)c2c(OC)c1OC` (as salt: salt) [Example A-1, 5,6,7-Trimethoxy-2-[4-(4-methyl-pentanoyl)-piperazin-1-yl]-1H-quinazolin-4-one] as the compound, how does the melting point read?
Answer: The melting point was 198 to 201 °C.

Question: With `CCN(C)Cc1ccc2c(c1)CN(c1nc(=O)c3c(OC)c(OC)c(OC)cc3[nH]1)CC2` [Example 1, 2-{7-[(Ethyl-methyl-ami-no)-methyl]-3,4-di-hydro-1H-isoquinolin-2-yl}-5,6,7-tri-methoxy-1H-quina-zolin-4-one] as the compound, how does the melting point read?
Answer: Its melting point is 161.4 to 163.9 °C.

Question: With `CCN(C)Cc1ccc2c(c1)CN(c1nc(=O)c3c(C)c(OC)c(OC)cc3[nH]1)CC2` [Example 2, 2-{7-[(Ethyl-methyl-ami-no)-methyl]-3,4-di-hydro-1H-isoquinolin-2-yl}-6,7-di-methoxy-5-meth-yl-1H-quinazolin-4-one] as the compound, how does the melting point read?
Answer: The melting point was 189.4 to 204.6 °C.

Question: With `CCN(C)Cc1cccc2c1CCN(c1nc(=O)c3c(OC)c(OC)c(OC)cc3[nH]1)C2` [Example 3, 2-{5-[(Ethyl-methyl-ami-no)-methyl]-3,4-di-hydro-1H-isoquinolin-2-yl}-5,6,7-tri-methoxy-1H-quinazolin-4-one] as the compound, how does the melting point read?
Answer: The melting point was 214 to 216.9 °C.

Question: For `CNCc1ccc2c(c1)CN(c1nc(=O)c3c(OC)c(OC)c(OC)cc3[nH]1)CC2` [Example 4, 5,6,7-Trimethoxy-2-(7-meth-ylaminomethyl-3,4-di-hydro-1H-isoquino-lin-2-yl)-1H-quina-zolin-4-one], which melting point is on record?
Answer: Its melting point is 178.1 to 180.9 °C.

Question: Which melting point does the source give for `CNCc1cccc2c1CCN(c1nc(=O)c3c(C)c(OC)c(OC)cc3[nH]1)C2` [Example 6, 6,7-Dimethoxy-5-meth-yl-2-(5-methyl-aminomethyl-3,4-di-hydro-1H-isoquinolin-2-yl)-1H-quin-azolin-4-one] here?
Answer: The melting point was 241.9 to 245.5 °C.

Question: With `COc1cc2c(cc1OC)CN(c1cc(=O)c3cc(Cl)c(Cl)cc3[nH]1)CC2` [Example 7, 6,7-Dichloro-2-(6,7-di-methoxy-3,4-dihydro-1H-iso-quinolin-2-yl)-1H-quino-lin-4-one] as the compound, how does the melting point read?
Answer: The melting point was 266 to 271 °C.

Question: With `CNCC(=O)N(C)Cc1cccc2c1CCN(c1nc(=O)c3c(C)c(OC)c(OC)cc3[nH]1)C2` [Example 8, N-[2-(6,7-Dimethoxy-5-meth-yl-4-oxo-1,4-di-hydro-quina-zolin-2-yl)-1,2,3,4-tetrahydro-iso-quinolin-5-ylmethyl]-N-meth-yl-2-methyl-amino-acetamide] as the compound, how does the melting point read?
Answer: The melting point was 208.8 to 212 °C.

Question: For `COc1cc2[nH]c(N3CCc4c(cccc4/N=C4\CCCN4C)C3)nc(=O)c2c(C(C)C)c1OC` [Example 9, 5-Isopropyl-6,7-di-methoxy-2-{5-[1-meth-yl-pyrolidin-(2E)-ylidene-amino]-3,4-di-hydro-1H-iso-quinolin-2-yl}-1H-quina-zolin-4-one], which melting point is on record?
Answer: The melting point was 196 to 200 °C.

Question: Which melting point does the source give for `COc1cc2[nH]c(N3CCN(c4cccc(C)n4)CC3)nc(=O)c2c(OC)c1OC` [Example 24, 5,6,7-Trimethoxy-2-[4-(6-meth-yl-pyridin-2-yl)-pipe-razin-1-yl]-1H-quina-zolin-4-one] here?
Answer: The melting point was 231.1 to 232.2 °C.
